This note sets out measurements from publication PMC12474757, “Paving the way for future PSMA inhibitors: insights from comparative preclinical evaluations of structure modifications” (EJNMMI Radiopharmacy and Chemistry, 2025).

A short description of data set [1]: Stability in human plasma/serum (radiochemical purity by HPLC). It counts as in vitro ADME. To be noted: for Stability in human serum (%): radiochemical purity, 37 °C, n = 1. The protocol:
(§1) Quality control, i.e. radiochemical purity, of the ^68Ga-labelled PSMA inhibitors was evaluated by analytical high performance liquid chromatography (HPLC; Dionex UltiMate 3000, Thermo Scientific, Waltham, Massachusetts, USA) using the following equipment: ACE 3 C18 column; 150 × 3 mm, 3 μm (Advanced Chromatography Technologies Ltd, Aberdeen, UK), with gradient elution A: H2O/acetonitrile (ACN); B:0.1% trifluoroacetic acid (TFA)/H2O: 0–3 min, 0% ACN; 3–10 min, 0 − 50% ACN; 10–13 min, 50 − 80% ACN; 13–15 min, 80–0% ACN, for 15 min at a flow rate of 1 mL/min. Radiometric detection was performed using a GABI Star radiodetector (Raytest GmbH, Straubenhardt, Germany) and for chromatogram quantification Chromatography Data System (CDS) - Chromeleon software (Thermo Scientific, USA) was used. The actual sample injection was performed using a Hamilton microinjector (Hamilton, USA).
Plasma stability was determined as follows. To 100 µL of ⁶⁸Ga-P15 with radioactivity of 45 kBq/100 µL, 400 µL of human plasma was added and mixed. The mixture was incubated at 37 °C and 100 µL samples were taken at 30, 60 and 120 min. These samples were then mixed with 200 µL of acetonitrile and placed on a shaker for 1 min. The sample was then centrifuged at 15,000 rpm for 3 min. After centrifugation, the supernatant was collected for radiochemical purity analysis by HPLC. The same procedure was applied when determining plasma stability of ⁶⁸Ga-P16, ⁶⁸Ga-P19, and ⁶⁸Ga-PSMA-617.

A short description of data set [2]: Radiochemical stability in physiological pH water environment. It counts as physicochemical. The conditions noted are these: radiochemical purity, pH 7, 37 °C, n = 1. The procedure: as §1
Radiochemical stability in a physiological pH water environment was determined as follows: 100 µL of acetate buffer (1.1 mol/L) was added to the labelled preparation and the pH was then checked with a pH indicator paper to be 7. The mixture was further incubated at 37 °C and after 30, 60 and 120 min, 10 µL aliquot was used for HPLC analysis of radiochemical purity.

Data set [3] relates to human plasma proteins. Description: Binding to human plasma proteins. It counts as in vitro ADME. The conditions noted are these: for Protein binding (%): human plasma, 37 °C, n = 2; for Binding rate to human plasma proteins: overall statement, incubation up to 120 min. The procedure:
Binding to human plasma proteins was determined following this procedure: 10 µL of the ⁶⁸Ga-P15 with radioactivity of 45 kBq/100 µL was mixed with 190 µL of human plasma. The sample was then incubated at 37 °C. After 0, 30, 60 and 120 min 25 µL of the sample was collected, applied to the appropriate column and centrifuged at 2000 g for 2 minutes. The radioactivity of the samples was then measured using a gamma counter 2480 Wizard^2 (PerkinElmer, Waltham, MA, USA), and then the binding to plasma proteins was calculated using the following formula % plasma protein binding = (Aelution/Atotal)×100. The same procedure was applied when determining binding to plasma proteins of ⁶⁸Ga-P16, ⁶⁸Ga-P19, and ⁶⁸Ga-PSMA-617.

Data set [4] is described as follows: Stability in human plasma/serum (radiochemical purity by HPLC). The class given is in vitro ADME. The conditions noted are these: 37 °C, incubation time 0 min, n = 1.
The subject of data set [5] is LNCaP tumour-bearing mice. Description: Ex vivo biodistribution in LNCaP tumour-bearing mice. Also noted: species or system SCID mice. The procedure: The eight-week-old male SCID mice (Charles River, Massachusetts, USA) were used to generate the mouse tumour model. The implantation of 10 million LNCaP cells (ATCC, Virginia, USA) per mouse in a 1:1 mixture of Matrigel matrix (Corning, New York, USA) was performed subcutaneously behind the right shoulder of the mouse. Tumours of adequate size, representing a volume of 100–300 mm³, were observed after five to six weeks.
Ex vivo biodistribution of PSMA inhibitors in tumor-bearing mice was conducted as follows. Concisely, 30 µL of acetate buffer was added to the each ⁶⁸Ga -labelled inhibitor, namely: ⁶⁸Ga-P15, ⁶⁸Ga-P16, ⁶⁸Ga-P19, and ⁶⁸Ga-PSMA-617 to achieve physiological pH. Mice were r.o. injected with 100 µL of labelled inhibitor (2 MBq, approximately 0.5 µg of the inhibitor). Animals were divided into two groups for biodistribution studies at 1 and 2 h after administration of the respective ^68Ga-labelled PSMA inhibitor. The animals were sacrificed and autopsied after euthanasia, and organs: spleen, pancreas, stomach, intestine, kidney, liver, heart, lung, muscle, bone, and tumour were collected in scintillation vials. The vials containing the samples were weighed and measured in a Wizard2 gamma counter (PerkinElmer, USA). The measured values were then adjusted for radionuclide decay and expressed as a percentage of administered dose per gram of organ (%ID/g). The NanoScan® hybrid Positron Emission Tomography/Computed Tomography (PET/CT) machine (Mediso, Budapest, Hungary) was used for in vivo imaging specifically whole-body helical PET/CT scans. Imaging settings were: single field of view (FOV) PET scans (98.5 mm) which took 10 min for each mouse and helical CT scans (50 kVp/980 µA, 720 projections) both took place one hour after the administration. Each mouse received an injection of approximately 10 MBq of tested radiopharmaceutical. To prevent the mice’s eyes from drying out during anaesthesia eye ointment (Ophthalmo-Azulen, Zentiva, CR) was applied. Image reconstruction was performed using Mediso Tera-Tomo 3D PET iterative reconstruction (Mediso Medical Imaging Systems, Budapest, Hungary). Both reconstruction and data evaluation were performed in Mediso InterView FUSION software (Mediso Medical Imaging Systems, Budapest, Hungary) (Mediso, Budapest, Hungary). Final images were normalised to injected activity and animal weight. All organs with radiopharmaceutical accumulation were roughly delineated on the images, while their SUVmax value was recorded. The SUV41% (Standardized Uptake Value 41%) was then calculated as 41% of each SUVmax value of given hotspot and the ROI was delineated based on this value (Boellaard et al. [2015]). All images were exported in maximum intensity projection (MIP) mode. The results from the ex vivo biodistribution study were subjected to statistical analysis, namely unpaired Student’s t-test (Microsoft Excel 365, USA).

Where [6] appears, read: one-hour p.i., mean ± SD, n = 4.

Several values for one entry are separate records, joined by “and”; a condition that tells them apart may be missing. Identical values can stand only once.

On to `O=C([O-])CN1CCN(CC(=O)[O-])CCN(CC(=O)N[C@H]2CC[C@H](NC(=O)[C@@H](Cc3ccc4ccccc4c3)NC(=O)CC[C@H](NC(=O)N[C@@H](CCC(=O)O)C(=O)O)C(=O)O)CC2)CCN(CC(=O)[O-])CC1.[68Ga+3]` [[^68Ga]Ga-P15], for which the “Stability in human serum (%)” value in data set [1] (incubation time 30 min) is on record as 98.9%; in data set [1] (incubation time 60 min) it was 99.8%; in data set [1] (incubation time 120 min), 99.4%; in data set [4] it was 99.0%. The “Stability in Physiological pH (%)” value was 99.0% in data set [2] (incubation time 0 min), 98.8% in data set [2] (incubation time 30 min), 98.7% in data set [2] (incubation time 60 min) and 99.2% in data set [2] (incubation time 120 min). In addition, the “Protein binding (%)” value in data set [3] (incubation time 0 min) is 26.7%; in data set [3] (incubation time 30 min) it was 27.0%; in data set [3] (incubation time 60 min) it was 29% and 29.4%; in data set [3] (incubation time 120 min), 40% and 39.9%. The “Binding rate to human plasma proteins” value in data set [3] is on record as no more than 40%. Also, the “tumour-to-muscle ratio, fold lower than [68Ga]Ga-PSMA-617” value in data set [5] (Fig. 5) is “more than 7 fold”. For the same compound, the “tumour uptake, fold lower than [68Ga]Ga-P16” value is on record as “more than 5 fold” in data set [5] (one-hour p.i.) and “up to 10 fold” in data set [5] (two-hours p.i.). Further, the “tumour-to-muscle ratio of [68Ga]Ga-PSMA-617 relative to that of the inhibitor” value in data set [5] (one-hour p.i.) is roughly 7.5 times. Further, the “Accumulation in the tumour” value in data set [5] (two-hours p.i., n = 4) is recorded as 0.5%.

In the case of `O=C([O-])CN1CCN(CC(=O)[O-])CCN(CC(=O)N[C@H]2CC[C@H](NC(=O)[C@H](Cc3ccc4ccccc4c3)NC(=O)CC[C@H](NC(=O)N[C@@H](CCC(=O)O)C(=O)O)C(=O)O)CC2)CCN(CC(=O)[O-])CC1.[68Ga+3]` [[^68Ga]Ga-P16], in data set [1] (37 °C, 30, 60 and 120 min), the “Radiochemical purity in human blood serum/plasma” value is “above 97%”. The “Stability in human serum (%)” value turned out to be 98.8% in data set [1] (incubation time 30 min), 98.3% in data set [1] (incubation time 60 min), 97.3% in data set [1] (incubation time 120 min) and 99.0% in data set [4]. The “Stability in Physiological pH (%)” value worked out at 99.3% in data set [2] (incubation time 0 min), 99.1% in data set [2] (incubation time 30 min), 99.3% in data set [2] (incubation time 60 min) and 99.3% in data set [2] (incubation time 120 min). Also, the “Protein binding (%)” value is 10% and 10.2% in data set [3] (incubation time 0 min); 10.9% in data set [3] (incubation time 30 min); 10.8% in data set [3] (incubation time 60 min); 13% and 13.4% in data set [3] (incubation time 120 min). Further, in data set [3], the “Binding rate to human plasma proteins” value was no more than 40%. The “tumour-to-muscle ratio of [68Ga]Ga-PSMA-617 relative to that of the inhibitor” value in data set [5] (one-hour p.i.) is given as “more than twice”. Moreover, the “Accumulation in the spleen” value in data set [5] (one-hour p.i., n = 4) came out at 7.7 % ID/g; in data set [5] (two-hours p.i., n = 4), 9.6 % ID/g.

Take `O=C([O-])CN1CCN(CC(=O)[O-])CCN(CC(=O)NCc2ccc(C(=O)N[C@H](C(=O)NCCCC[C@H](NC(=O)N[C@@H](CCC(=O)O)C(=O)O)C(=O)O)C(c3ccccc3)c3ccccc3)cc2)CCN(CC(=O)[O-])CC1.[68Ga+3]` [[^68Ga]Ga-P19]: the “Stability in human serum (%)” value in data set [1] (incubation time 30 min) came to 99.3%; in data set [1] (incubation time 60 min) it was 99.8%; in data set [1] (incubation time 120 min), 99.9%; in data set [4], 99.0%. Moreover, the “Stability in Physiological pH (%)” value in data set [2] (incubation time 0 min) was 99.8%; in data set [2] (incubation time 30 min), 99.5%; in data set [2] (incubation time 60 min) it was 99.5%; in data set [2] (incubation time 120 min), 99.6%. Also, the “Protein binding (%)” value in data set [3] (incubation time 0 min) is 56.6%; in data set [3] (incubation time 30 min), 59% and 58.8%; in data set [3] (incubation time 60 min), 58% and 57.7%; in data set [3] (incubation time 120 min), 58% and 58.2%. Moreover, the “tumour-to-blood ratio, times higher than [68Ga]Ga-PSMA-617” value in data set [5] (one hour after administration) is reported as “more than 1.5 times”. The “level in the kidney, times lower compared to [68Ga]Ga-PSMA-617” value in data set [5] (one hour after administration, p < 0.05) is on record as “up to 7 times”. Besides, the “tumour-to-muscle ratio of [68Ga]Ga-PSMA-617 relative to that of the inhibitor” value in data set [5] (one-hour p.i.) is given as “more than 1.6 times”. In data set [5] (setting [6]), the tumour-to-blood ratio was determined as 9.0 ± 2.3. Further, the tumour-to-kidney ratio is given as 0.85 ± 0.36 in data set [5] (setting [6]) and 0.85 ± 0.02 in data set [5] (two hours post injection, mean ± SD, n = 4). For the same compound, the “Accumulation in the tumour” value in data set [5] (one-hour p.i., n = 4) was 3.5 % ID/g; in data set [5] (two-hours p.i., n = 4) it was 2.0 % ID/g.
